Consider 13 compounds from US5436243A, “Aminoanthraquinone derivatives to combat multidrug resistance” (priority 1993, dated 1995).

In data set [1] the test system is P-glycoprotein. Conditions: literature; cited from earlier work.
Data set [2] deals with PKC. Conditions: literature; cited from earlier work.
For the next data set, the system named is MDR cell lines. Conditions: literature, cited from earlier work.
Data set [3] has as its system patients with tumors clinically resistant to adriamycin. The note with it: cited from earlier work.
The subject of data set [4] is patients. Conditions: cited from earlier work.
Data set [5] has as its system MCF7 Adr 10 human breast cancer cells. Description: Vinblastine accumulation assay, MCF7 Adr 10. It is filed as cell-based. The note with it: for activity in vinblastine accumulation assay / drug accumulation: MDR MCF7. The method, then: [^3 H] vinblastine ([^3 H] VLB) was added to a final concentration of 100 nM and the cells were incubated for 2.5 hours. At this time, the cells were washed 3 times in ice cold PBS and lysed in buffer containing 0.1% Triton X-100. Net accumulation of [^3 H] vinblastine was expressed as pmol/mg protein. In [^3 H]

The nature of data set [6]: [3H] VLB binding to MCF7 WT membrane vesicles. Also on record: species or system human. Conditions: MCF7 WT vesicles. The method, then:
METHOD: Membrane vesicles from sensitive and MDR MCF7 were prepared by nitrogen cavitation and isolated by centrifugation in discontinuous sucrose gradients. […] In the presence of 100 nM [^3 H] VLB and ATP, total and nonspecific binding of [^3 H] VLB (experimentally defined as binding in the presence of a 100 μM unlabeled VLB) was measured. Association of [^3 H] […] In contrast, association of [^3 H] […] VLB with MCF7 WT vesicles.

Data set [7] deals with P-glycoprotein in MCF7 Adr 10 membrane vesicles (Homo sapiens, UniProt P08183).
Chain of P-glycoprotein in MCF7 Adr 10 membrane vesicles (P08183 whole entry): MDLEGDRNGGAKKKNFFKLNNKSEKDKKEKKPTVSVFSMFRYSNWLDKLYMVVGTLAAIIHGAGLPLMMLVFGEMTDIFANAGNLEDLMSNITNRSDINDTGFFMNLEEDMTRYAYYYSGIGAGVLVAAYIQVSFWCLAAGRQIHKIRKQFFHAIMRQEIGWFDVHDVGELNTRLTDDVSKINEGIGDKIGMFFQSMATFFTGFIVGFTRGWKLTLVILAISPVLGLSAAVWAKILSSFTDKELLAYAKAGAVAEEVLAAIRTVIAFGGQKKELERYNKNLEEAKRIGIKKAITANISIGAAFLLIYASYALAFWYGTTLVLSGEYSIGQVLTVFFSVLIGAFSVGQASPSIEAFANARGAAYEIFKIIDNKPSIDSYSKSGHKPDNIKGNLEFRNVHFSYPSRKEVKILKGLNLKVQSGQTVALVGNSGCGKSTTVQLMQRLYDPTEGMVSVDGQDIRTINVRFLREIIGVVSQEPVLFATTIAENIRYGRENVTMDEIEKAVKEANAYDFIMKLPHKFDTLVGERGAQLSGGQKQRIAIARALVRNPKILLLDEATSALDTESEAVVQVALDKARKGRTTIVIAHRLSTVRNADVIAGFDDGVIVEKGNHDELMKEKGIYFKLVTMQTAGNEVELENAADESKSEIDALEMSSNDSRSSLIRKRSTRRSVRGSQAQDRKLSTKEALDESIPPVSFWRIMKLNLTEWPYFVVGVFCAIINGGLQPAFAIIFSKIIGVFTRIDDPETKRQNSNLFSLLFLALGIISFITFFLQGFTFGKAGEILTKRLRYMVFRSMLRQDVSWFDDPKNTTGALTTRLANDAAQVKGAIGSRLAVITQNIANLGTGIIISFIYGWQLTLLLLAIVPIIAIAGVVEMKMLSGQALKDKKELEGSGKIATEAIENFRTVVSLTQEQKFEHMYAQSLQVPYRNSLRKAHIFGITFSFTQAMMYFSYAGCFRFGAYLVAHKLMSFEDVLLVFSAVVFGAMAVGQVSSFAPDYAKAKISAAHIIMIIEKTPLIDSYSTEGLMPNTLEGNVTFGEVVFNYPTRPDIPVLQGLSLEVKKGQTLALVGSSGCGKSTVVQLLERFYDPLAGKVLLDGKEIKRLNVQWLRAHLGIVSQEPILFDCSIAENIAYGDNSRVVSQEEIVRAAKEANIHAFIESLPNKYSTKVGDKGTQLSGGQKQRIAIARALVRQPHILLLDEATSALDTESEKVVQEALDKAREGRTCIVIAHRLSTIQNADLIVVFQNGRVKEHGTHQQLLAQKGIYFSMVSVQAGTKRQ
The test system of data set [8] is MCF7 Adr 10. Description: 72 hour MTT proliferation assay, reversal of drug resistance in MCF7 Adr 10. Type of data set: cell-based, human. The note with it: [1c] 0 μM; for IC50: Homo sapiens, NCI/ADR-RES. On the procedure:
(§1) In 72 hour MTT proliferation assays using the following method, compounds 1b, 1c and 1d were assessed for inhibition of Vinca alkaloid and anthracycline drug resistance in MDR MCF7. Additionally, compounds 1b and 1c were assessed for potentiation of sensitivity to Vinca alkaloid and anthracycline drugs in the parental MCF7 WT cell line.
(§2) METHOD: 5000 cells per well were plated in 100 μl of IMDM containing 10% FCS and allowed to adhere overnight. The following day the cells were treated with N-substituted 1,4-diaminoanthraquinones and exposed to graded concentrations of antineoplastic agents. 50 μl of IMDM 10% FCS containing either vehicle or N-substituted 1,4-diaminoanthraquinones at 3 times the final tested concentration was added to cells at timed intervals. The plates were incubated for 2 hours at 37° C. to allow maximal cellular accumulation of N-substituted 1,4-diaminoanthraquinones. 40 μl aliquots of IMDM 10% FCS containing either vehicle or graded concentrations of antineoplastic drugs at 5 times the final concentration were added to treatment groups. Following this addition, 10 μl of IMDM 10% FCS containing either vehicle or N-substituted 1,4-diaminoanthraquinone at 5 times the final concentration was added to each group of wells. The cells were incubated for 72 hours after treatment. At this time the viable cells in each treatment group were estimated in a colorimetric assay by adding MTT and incubating the cells at 37° C. for 3-4 hours. The media in each well was aspirated and MTT formazan was solubilized in isopropyl alcohol acidified with 0.1 N HCl. The absorbance of the solubilized formazan was quantitated using a plate reader spectrophotometer. […] The concentrations of antineoplastic drugs which inhibited proliferation by 50% (IC50's) were estimated by calculating a percentage from the ratio: antineoplastic drug treated groups/control group absorbance and plotting the dose response curve on semilog paper. The IC50 was estimated from this curve. To assess the effects of inhibition of resistance by N-substituted 1,4-diaminoanthraquinones, the percentages were calculated relative to cell groups treated with resistance modifier alone and IC50's calculated as above. A reversal factor was calculated by dividing the IC50 to the antineoplastic drug alone (Control group) by the IC50 to antineoplastic drug in cells treated with resistance modifier.

The test system of data set [9] is P-glycoprotein. The note with it: intact MDR cells and MDR membrane vesicles; cited from earlier work.
For data set [10], the system named is MCF7 Adr 10. The data set can be described thus: Tumor cell clonogenic assay, MCF7 ADR 10. It is filed as cell-based, human. The note with it: Homo sapiens, NCI/ADR-RES, read-out: Continuous Exposure IC50, MCF7 ADR 10.
Protocol: The tumor cell clonogenic assays measure clonal proliferation of tumor cells. In this assay, 300-500 cells are plated in 10 cm^2 wells, allowed to adhere overnight, and are treated the following day. Tumor cell colonies were counted after 10-12 days of culture. The times of exposure in these experiments are similar; however, the concentrations of FCS are 20% in the CFU-GM assay and 10% in the tumor cell clonogenic assays. The IC50's are calculated as described above for the MTT proliferation assays.
Data set [11] relates to MCF7 WT. Description: Tumor cell clonogenic assay, MCF7 WT. It is filed as cell-based, human. Conditions: Homo sapiens, MCF7, read-out: Continuous Exposure IC50, MCF7 WT.
Protocol: The tumor cell clonogenic assays measure clonal proliferation of tumor cells. In this assay, 300-500 cells are plated in 10 cm^2 wells, allowed to adhere overnight, and are treated the following day. Tumor cell colonies were counted after 10-12 days of culture. […] The IC50's are calculated as described above for the MTT proliferation assays.
Data set [12] relates to MCF7 WT. The data set can be described thus: 72 hour MTT proliferation assay, potentiation of sensitivity in MCF7 WT. Type of data set: cell-based, human. The method, then: as §1, §2
A general note: Tetrazolium dyes change colour on reduction, which living cells bring about.

The test system of data set [13] is PKC. The data set can be described thus: Micellar PKC screening assay. It is filed as biochemical. An excerpt: The N-substituted diaminoanthraquinone, 1b, (1,4-bis-[[3'-(diethylamino)propyl]amino]anthraquinone), was identified as a PKC inhibitor in the micellar PKC screening assay and in platelets. […] Spectrophotometric analysis of 1b and lc indicated they were excellent chromophores with absorbance maxima at 648 and 600 nm in chloroform, respectively, and extinction coefficients of approximately 20,000. At these wavelengths, there was minimal absorbance by cellular components contained in the chloroform phase. These properties of 1b and 1c were utilized to determine the time course of accumulation of these compounds in MDR MCF7 Adr 10 cells.
The activities of 1a, 1b, 1c and 1d and mitoxantrone, an anthraquinone antineoplastic drug, were evaluated in vinblastine drug accumulation assays performed by the following method. […] Mitoxantrone was identified as a PKC inhibitor in miceliar PKC assays. Compound 1d (1,4-bis-[[2-(4-morpholino)ethyl]amino]anthraquinone) was only evaluated in cellular studies.

For data set [14], the system named is patients. The note with it: human, in vivo; cited from earlier work.
The next data set concerns casein kinase 2. Description: Casein kinase 2 inhibition. Type of data set: biochemical. The source says:
One possible explanation for stimulation of phosphorylation of P-glycoprotein and MARCKS is that 1c may activate PKC or other cellular kinases by signal transduction pathways that have not yet been identified to phosphorylate these proteins. An alternative explanation for stimulation of phosphorylation of P-glycoprotein and MARCKS is that 1c inhibits protein phosphatases.

A short description of data set [15]: Partition in Bligh-Dyer extracts. Type of data set: physicochemical. The method, then: At these wavelengths, there was minimal absorbance by cellular components contained in the chloroform phase. […] METHOD: […] The monolayers were treated with 25 μM 1b or 1c and incubated at 37° C. After incubating the samples for the times indicated in FIG. 1, the monolayers were washed three times with DPBS and detached using 1 ml of Trypsin-EDTA.An aliquot of the cell suspension was counted using a Coulter Counter and a 0.8 ml aliquot was extracted in a Bligh-Dyer extraction (Bligh et at., Can. J. Biochem. 31:911-916 (1959)). The absorbance of the lower chloroform phase was measured at 648 nm and 600 nm using a spectrophotometer. The amount of 1b or 1c present in the extract was quantitated from a standard curve performed in cell extracts. The data is expressed as nmol anthraquinone/10^6 cells.

Entries after “also recorded” stand apart in the source; their conditions may differ. Where two headings read alike, the source gives them in different places. Bounds are passed on as bounds.

Turning to `CCCCCCCCCCCCCC(=O)O[C@@H]1[C@@H](C)[C@@]2(O)[C@@H](C=C(CO)C[C@]3(O)C(=O)C(C)=C[C@@H]23)[C@@H]2C(C)(C)[C@]12OC(C)=O` [phorbol myristate acetate], the “phosphorylation of the P-glycoprotein” value with P-glycoprotein [1] is given as “stimulate phosphorylation of the P-glycoprotein”.

In the case of `CN1CCN(CCCN2c3ccccc3Sc3ccc(C(F)(F)F)cc32)CC1` [trifluoperazine], in the data set on PKC [2], the “PKC inhibition in vitro” value is reported as “non-specifically inhibit PKC in vitro”. The “drug accumulation and reversal of resistance in MDR cell lines” value (shortened to “drug accumulation and reversal”) with MDR cell lines was “increase drug accumulation and decrease resistance in MDR cell lines”. The tumor responses entry in data set [3] (36 patients, oral, with constant infusion adriamycin) was “One complete response and six partial responses”. Moreover, in data set [3] (human, in vivo), the dose-limiting toxicity result was “Neurotoxicity of trifluoperazine to the extrapyramidal tracts was dose-limiting” and the “plasma concentrations below those optimal for modulation of chemoresistance in vitro” value is “approximately 10 fold”. Moreover, the “phosphorylation of the P-glycoprotein” value in the data set on P-glycoprotein [1] is “stimulate phosphorylation of the P-glycoprotein”.

With `COc1ccc(CCN(C)CCCC(C#N)(c2ccc(OC)c(OC)c2)C(C)C)cc1OC` (centres unmarked) [verapamil], in the data set on PKC [2], the “PKC inhibition in vitro” value is given as “non-specifically inhibit PKC in vitro”. Besides, in the data set with MDR cell lines, the “concentrations inhibiting the MDR phenotype” value was 2 to 10 µM. The “drug accumulation and reversal” value with MDR cell lines is “more effective in reversal of resistance to anticancer drugs in other studies”; in the data set on MDR cell lines (listed as Verapamil) it was “increases in accumulation and decreases in resistance to natural product chemotherapeutic drugs”. Moreover, the dose-limiting toxicity entry in the data set with patients [4] is on record as “dose-limiting cardiac toxicity”.

Consider `O=C1c2ccccc2C(=O)c2c(NCCN3CCOCC3)ccc(NCCN3CCOCC3)c21` [Compound 1d, 1,4-bis-[[2-(4-morpholino)ethyl]amino]anthraquinone], for which the minimal effective concentration in data set [5] (Homo sapiens, NCI/ADR-RES, 100 nM [3H] VLB, 2.5 hours, FIGS. 2 and 3, read-out: lowest concentration which causes a doubling of basal accumulation of vinblastine) was 2.5 µM. Moreover, the “activity in vinblastine accumulation assay / drug accumulation” value in data set [5] is recorded as “increase vinblastine accumulation in MDR MCF7”.

As for `CCC1(O)CC2CN(CCc3c([nH]c4ccccc34)C(C(=O)OC)(c3cc4c(cc3OC)N(C)C3C(O)(C(=O)OC)C(OC(C)=O)C5(CC)C=CCN6CCC43C65)C2)C1` (centres unmarked) [[^3 H] VLB], the “association of [3H] VLB relative to MCF7 Adr 10” value in [6] was “approximately 15%”. For the same compound, in data set [7], the “enhancement of [3H] VLB association by addition of ATP” value was 2-3 fold and the “time to maximal association of [3H] VLB” value is listed as not above 15 min.

For the compound `COc1cccc2c1C(=O)c1c(O)c3c(c(O)c1C2=O)C[C@@](O)(C(C)=O)C[C@@H]3O[C@H]1C[C@H](N)[C@H](O)[C@H](C)O1` [DNR, reference compound], the IC50 (commonly the concentration at which inhibition is half-maximal) with MCF7 Adr 10 [8] (average ± SD of 3 experiments, read-out: DNR IC50) was found to be 6.7 µM. In addition, the “Reversal Factor (DNR)” value in the data set on MCF7 Adr 10 [8] amounted to 1.0.

As to O-acetyl C9 -cyclosporin A [SDZ 33-243], the “[3H] azidopine photoaffinity labeling of P-glycoprotein” value in the data set on P-glycoprotein [9] is “inhibit”.

For `CC[C@]1(O)C[C@H]2CN(CCc3c([nH]c4ccccc34)[C@@](C(=O)OC)(c3cc4c(cc3OC)N(C=O)[C@H]3[C@@](O)(C(=O)OC)[C@H](OC(C)=O)[C@]5(CC)C=CCN6CC[C@]43[C@@H]65)C2)C1` [VCR, reference compound], the IC50 in the data set with MCF7 Adr 10 [8] (average ± SD of 3 experiments, read-out: VCR IC50) was found to be 3.3 µM; with MCF7 Adr 10 [10], 970 nM; in the data set with MCF7 WT [11], 0.4 nM; in the data set on MCF7 WT [12] (Homo sapiens, MCF7, read-out: VCR IC50), 1.9 nM. The “Reversal Factor (VCR)” value in the data set on MCF7 Adr 10 [8] was 1.0; in the data set with MCF7 WT [12] ([1c] 0 μM, MCF7 WT) it was 1.0.

`CCCCCCCCNc1ccc(NCCCCCCCC)c2c1C(=O)c1ccccc1C2=O` [Compound 1a, 1,4-bis-(octylamino) anthraquinone]: the “PKC activity in micellar PKC screening assay” value in the data set on PKC [13] is recorded as “PKC stimulation”. Further, the “activity in vinblastine accumulation assay / drug accumulation” value in [5] is “inactive; also recorded: did not show significant activity”.

Take `COc1ccc(CCN(C)CCC[C@](C#N)(c2ccc(OC)c(OC)c2)C(C)C)cc1OC` [D-verapamil]: the toxicity in humans entry with patients [14] is on record as “too toxic to use at high concentrations in humans”.

Consider `COc1cccc2c1C(=O)c1c(O)c3c(c(O)c1C2=O)C[C@@](O)(C(=O)CO)C[C@@H]3O[C@H]1C[C@H](N)[C@H](O)[C@H](C)O1` [ADR, reference compound], for which the IC50 in the data set on MCF7 Adr 10 [8] (average ± SD of 4 experiments, read-out: ADR IC50) was 38 µM; with MCF7 Adr 10 [10] it was 3400 nM; in the data set with MCF7 WT [11], 5.6 nM. Further, in the data set with MCF7 Adr 10 [8], the “Reversal Factor (ADR)” value worked out at 1.0.

On to `CN(C)CCOc1ccc(/C(=C(/CCCl)c2ccccc2)c2ccccc2)cc1` [toremifene], for which the “drug accumulation and reversal” value with MDR cell lines is recorded as “can also modulate resistance of estrogen receptor-negative MDR cell lines”.

`O=C1c2c(O)ccc(O)c2C(=O)c2c(NCCNCCO)ccc(NCCNCCO)c21` [mitoxantrone, reference compound]: in the data set on PKC [13], the “PKC activity in micellar PKC screening assay” value was “PKC inhibitor” and the “inhibitory activity in in vitro PKC assays relative to 1b or 1c” value is on record as “greater inhibitory activity”. Also, the “drug accumulation and reversal” value in the data set with MDR cell lines is “less cross-resistance”. In addition, in data set [5], the “activity in vinblastine accumulation assay / drug accumulation” value is given as “significant loss of activity; also recorded: did not show significant activity”. Besides, the “activity in vinblastine accumulation assay / drug accumulation” value in data set [5] (listed as Mitoxantrone) was “does not increase drug accumulation”. The “inhibitory activity in in vitro casein kinase 2 assays relative to 1b or 1c” value in the data set on casein kinase 2 was “greater inhibitory activity”. In addition, the “partition into the lower chloroform phase” value in data set [15] is on record as “does not partition into the lower chloroform phase”.
